What was measured:
S6K1 = target: T1, S6K1 (Homo sapiens, UniProt P23443, T412E); experiment: S6K1 kinase inhibition (S6K1ΔCT/T412E, TR-FRET); type: biochemical; details: read-out: IC50 Range Class, inhibition of S6K1
T1 construct: His (N); made in house; host or cells: Sf9 insect cells (baculovirus, pFastBacHT A), co-infected with GST-PDK1 virus
Source text: The DNA fragment encoding S6K1ΔCT/T412E is subcloned to the baculovirus donor vector pFastBacHT A to generate a recombinant baculovirus that expresses S6K1ΔCT/T412E. Transfer vectors for S6K1ΔCT/T412E are transfected into the DH10Bac cell line (GIBCO). After selection of white colonies, they are used for viral DNA (bacmid) preparation. Sf9 cells (American Type Culture Collection) cells are then transfected with the viral DNA using Cellfectin reagent. Virus-containing media is collected from the transfected cell culture and is used for infection to increase its titer. For large-scale protein expression, Sf9 cells are co-infected with S6K1ΔCT/T412E and GST-PDK1 virus-containing media with MOI of 2.25 and 1, respectively. After 3 days, the cells expressing the recombinant enzyme are resuspended in the culture medium with a sterilized cell scraper and harvested by centrifugation. The cells are resuspended in 5 volumes of cell pellet of Extraction Buffer (50 mM MOPS pH 7.0, containing 300 mM NaCl, 0.05% Tween-20, 10 mM sodium pyrophosphate, 50 mM β-glycerophosphate, 0.2 mM cantharidic acid and 1× complete-EDTA protease inhibitor cocktail) and then disrupted with 15 strokes of a Dounce homogenizer followed by sonication on ice. The homogenate is centrifuged at 4° C. for 60 minutes at 48,000×g. The supernatant is clarified with a 5 μm filter and subjected to purification with TALON Superflow Resin (Clontech). First, 1 mL of TALON resin per 5 mL of the supernatant was equilibrated with the Extraction Buffer and resuspended in the supernatant followed by gentle agitation for 20 minutes at RT. After centrifugation at 700×g for 5 minutes, supernatant is removed. The resin is washed twice by adding 10 bed volumes of the Extraction Buffer, agitating for 10 minutes at RT, centrifugating at 700×g for 5 minutes, and discarding the supernatant. The resin is then resuspended with the same volume of the Extraction Buffer and transferred to an disposable chromatography column. The packed column is washed once with 10 bed volumes of the Extraction Buffer and additionally with the same volume of Wash Buffer (5 mM imidazole in the Extraction Buffer). Then, the His-tagged S6K1ΔCT/T412E is eluted with four bed volumes of Elution Buffer (150 mM imidazole in the Extraction Buffer).
Measure of enzyme activity: The kinase assay with purified S6K1ΔCT/T412E is performed with TR-FRET (Time-Resolved Fluorescene Resonance Energy Transfer) technology. First, ATP-dependent phosphorylation of the biotinylated substrate peptide corresponding to residues 229-242 of S6 ribosomal protein (Biot-AKRRRLSSLRASTS) is carried out for 1 hour at 37° C. in […] under humidified air. The kinase reaction mixture of the final volume of 9 μL contains 2.57 ng of purified S6K1ΔCT/T412E protein, 50 mM MOPS (pH 7.0), 0.1 mM EGTA, 0.01 mM Na3VO4, 0.05% Tween-20, 0.01% BSA, 1 mM DTT, 10 mM MgCl2, 3 μM ATP, 0.5 μM biotinylated substrate peptide, 1% of DMSO or the text compounds of the formula (I) at the required concentration in 1% DMSO. For measurement of background, 20 mM of EDTA is added to the reaction mixture. […] Phosphorylated peptide indicative of kinase activity is quantitated by exciting the sample at 330 nm and comparing donor emission at 615 nm and acceptor emission at 665 nm by 2101 EnVision HTS multilabel plate reader (Perkin Elmer). […]

ALK = target: T2, ALK (Homo sapiens, UniProt Q9UM73); experiment: ALK tyrosine kinase inhibition (GST-ALK filter binding assay); type: biochemical; details: for IC50: read-out: IC50 Range Class, inhibition of ALK
T2 construct: using the recombinant kinase domain of the ALK in analogy to the VEGF-R kinase assay
Experimental: See Wood et al., Cancer Res, Vol. 60, No. 8, pp. 2178-2189 (2000). In vitro enzyme assays using GST-ALK protein tyrosine kinase are performed in 96-well plates as a filter binding assay in 20 mM tris-HCl, pH=7.5, 3 mM MgCl2, 10 mM MnCl2, 1 mM DTT, 0.1 μCi/assay (=30 μL) [γ-^33P]-ATP, 2 μM ATP, 3 μg/mL poly (Glu, Tyr 4:1) Poly-EY (Sigma P-0275), 1% DMSO, 25 ng ALK enzyme. Assays are incubated for 10 minutes at ambient temperature. Reactions are terminated by adding 50 μL of 125 mM EDTA, and the reaction mixture is transferred onto a MAIP Multiscreen plate (Millipore, Bedford, Mass., USA), previously wet with methanol, and re-hydrated for 5 minutes with H2O. Following washing (0.5% H3PO4), plates are counted in a liquid scintillation counter. IC50 values are calculated by linear regression analysis of the percentage inhibition. Compared with the control without inhibitor, the compounds of formula (I) inhibit the enzyme activity by 50% (IC50), e.g., in a concentration of from 0.001-0.5 μM, especially from […].

T2 sequence (Q9UM73 1116-1392 limits assumed): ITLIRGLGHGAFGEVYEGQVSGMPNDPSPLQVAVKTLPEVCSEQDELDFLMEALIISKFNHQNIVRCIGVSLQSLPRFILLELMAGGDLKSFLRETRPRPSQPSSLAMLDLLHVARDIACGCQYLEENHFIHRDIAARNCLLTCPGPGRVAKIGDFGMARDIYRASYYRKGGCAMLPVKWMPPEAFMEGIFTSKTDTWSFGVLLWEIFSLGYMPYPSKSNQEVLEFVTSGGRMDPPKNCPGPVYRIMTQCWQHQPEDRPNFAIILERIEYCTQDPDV
T1 sequence (P23443 1-421 T412E): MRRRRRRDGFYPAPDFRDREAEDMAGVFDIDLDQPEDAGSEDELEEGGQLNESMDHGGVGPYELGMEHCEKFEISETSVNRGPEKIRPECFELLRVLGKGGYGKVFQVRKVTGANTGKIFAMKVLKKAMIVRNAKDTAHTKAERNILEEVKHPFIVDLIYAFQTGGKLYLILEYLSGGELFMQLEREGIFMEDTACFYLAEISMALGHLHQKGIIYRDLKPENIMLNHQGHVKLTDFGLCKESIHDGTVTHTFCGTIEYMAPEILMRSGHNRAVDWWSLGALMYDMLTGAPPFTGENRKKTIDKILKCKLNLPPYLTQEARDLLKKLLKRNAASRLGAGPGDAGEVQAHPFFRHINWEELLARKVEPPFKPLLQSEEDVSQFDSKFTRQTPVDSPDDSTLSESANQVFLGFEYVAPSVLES

| IC50 (S6K1) | IC50 (ALK) | IC50 Range Class, inhibition of ALK (ALK) | SMILES |
| --- | --- | --- | --- |
| ≤ 500 nM | ≤ 500 nM | – | NCCc1ccc(-n2cnc3cnc4ccc(-c5ccc6[nH]ccc6c5)cc4c32)c(Cl)c1 [Example 11, 2-{3-Chloro-4-[8-(1H-indol-5-yl)-imidazo[4,5-c]quinolin-1-yl]-phenyl}-ethylamine] |
| ≤ 500 nM | – | B/A | NCCc1ccc(-n2cnc3cnc4ccc(-c5ccc6[nH]ccc6c5)cc4c32)cc1F [Example 18, 2-{2-Fluoro-4-[8-(1H-indol-5-yl)-imidazo[4,5-c]quinolin-1-yl]-phenyl}-ethylamine] |
| – | ≤ 500 nM | – | NCCCc1ccc(-n2cnc3cnc4ccc(-c5ccc6[nH]ccc6c5)cc4c32)c(Cl)c1 [Example 48, 3-{3-Chloro-4-[8-(1H-indol-5-yl)-imidazo[4,5-c]quinolin-1-yl]-phenyl}-propylamine] |

Reference: US20080262021A1, “1H-Imidazoquinoline Derivatives as Prote In Kinase Inhibitors” (NOVARTIS AG, priority 2003, published 2008)
